Reference: patent US10316039B2, “P2X3 and/or P2X2/3 compounds and methods” (Asana Biosciences, LLC, priority 2013, dated 2019)

System: thermal hyperalgesia induced by intraplantar Complete Freund's Adjuvant
Assay: CFA-induced inflammatory thermal hyperalgesia (Hargreaves test)
Type: in vivo
Settings: rat, 60 mg/kg, dosed 48 h after footpad CFA
Method: (§1) FIG. 2 illustrates the antihyperalgesic effects of the compound of example 22 in a rat model of inflammatory thermal hyperalgesia induced by an intraplantar injection of Complete Freund's Adjuvant (CFA). Thermal hyperalgesia is manifest as a reduction in the time for foot-withdrawal during irradiation with a painful thermal stimulus. The compound of example 22 was administered at a dose of 60 mg/kg, 48 h after footpad injection of CFA and produced a substantial reversal (77% and 68%) of thermal hyperalgesia when assessed at 1 h and 2 h post-dose, respectively.
as §1, with “5” for “2”, “38” for “22”, “CFA.” for “Complete Freund's Adjuvant (CFA).”, “(50%)” for “(77% and 68%)”, “post-dose.” for “and 2 h post-dose, respectively.”
as §1, with “6” for “2”, “52” for “22”, “CFA.” for “Complete Freund's Adjuvant (CFA).”, “(39%)” for “(77% and 68%)”, “post-dose.” for “and 2 h post-dose, respectively.”
Male Sprague Dawley rats of young adult age group and body weight range of 180-200 g were included in the study. Animals were housed under a 12 h light/dark cycle with food and water ad libitum. The animals underwent acclimatization with the observation chambers of the Hargreaves' apparatus for two days, twice daily for 45-60 min each time prior to initiation of study. Animals were also habituated to the apparatus for 15-30 min before each testing. Thermal hyperalgesia was assessed using the rat plantar test (Ugo Basile, Italy) following a modified method of Hargreaves (1988, “A new and sensitive method for measuring thermal nociception in cutaneous hyperalgesia”, Pain 32: 77-88). […]
Following basal readout of PWL values to the thermal stimulus (PWL measurements described previously), 50 μL of complete Freund's Adjuvant (CFA—1 mg/mL suspension—Sigma, USA, Cat # F5881) was injected subcutaneously into the plantar surface of the right hind (ipsilateral) paw of animals under light isoflurane anesthesia. […]
Next day (day 1) after 20-22 h of CFA injection, PWL of animals were recorded. Mean of three readings are taken as PWL recording of ipsilateral paw of each animal for pre and post CFA basal readout. […]

Row | Compound | reversal of thermal hyperalgesia (assessed 1 h post-dose) [%] | reversal of thermal hyperalgesia (assessed 2 h post-dose) [%]
1 | C[C@H](NC(=O)c1cc(-n2nncc2C(F)F)c2ncc(-c3ccc(Cl)s3)n2c1)c1nnc[nH]1 [Example 38] | 50 | 
2 | CC[C@H](NC(=O)c1cc(-n2nncc2C(F)F)c2ncc(-c3ccc(C)s3)n2c1)c1nnc[nH]1 [Example 52] | 39 | 
3 | CCc1cnnn1-c1cc(C(=O)NCc2ccc(C)nc2)cn2c(-c3ccc(C)s3)cnc12 [Example 22] | 77 | 68
